From patent US20020137154A1, “Methods for improving cell growth and alcohol production during fermentation” (priority 2000, published 2002) come the findings set out here.

Test [1] deals with recombinant Escherichia coli KO11. Briefly: Batch fermentation of E. coli KO11 in 1% CSL medium and xylose with nutrient additives: ethanol production and cell growth. Type of test: cell-based. To be noted: for Ethanol Production Maximum / Ethanol yield / Initial Growth (OD @ 24 h) OD / Maximum Cell Density OD / Maximum Cell Density Time / Volumetric Productivity Average / Volumetric Productivity Maximum: 1% CSL+xylose; for activity at 2000 µg/mL: Escherichia coli. On the procedure:
(§1) Two types of media were tested: 1% CSL and Luria broth (LB). Each contained 97 g of either xylose or glucose per liter. Luria Broth consists of, per liter: 10 g Difco® Tryptone, 5 g Difco® Yeast Extract and 5 g NaCl. The 1% CSL medium consists of Corn Steep Liquor (1% w/v) plus mineral salts (mineral salts per liter: 1 g of KH2PO4. 0.5 g of K2HPO4, 3.1 g of (NH4)2SO4, 0.4 g of MgCl2·6H2), and 20 mg FeCl3·6H2O).
(§2) Luria Broth was prepared by autoclaving a 2× nutrient stock containing, per liter: 20 g Difco® Tryptone, 10 g Difo® Yeast Extract, and 10 g NaCl. Sugars (xylose or glucose) were autoclaved separately. A 1% CSL medium was prepared as follows: Commercial Corn Steep Liquor (CSL; 50% dry weight/50% water) was diluted with tap water to make a 20X stock containing 100 g dry weight of Corn Steep Liquor/L and was adjusted to pH 7.2 with NaOH (50%). After sterilization by autoclaving, the 20X CSL stock was clarified by centrifugation at 5000×g for 10 minutes. Magnesium was added as a 100× stock solution (40 g/L MgCl2·6H2O). Iron was added as a 1000× stock solution made by dissolving 20 g FeCl3·6H2O in 175 mL of HCl and adjusting to 1 L with sterile water. Nitrogen, sulfur and phosphorus were added using a 20× stock solution containing the following (per liter): 20 g of KH2PO4, 10 g of K2HPO4 and 62 g of (NH4)2SO4. Stock solutions containing minerals were sterilized separately by autoclaving. Final media was prepared by adding 750 mL of water to 1 L bottle containing 100 g of xylose or glucose.
Inocula were grown in same media used for fermentation and were prepared as follows. Three colonies from a fresh plate were used to inoculate seed cultures: 250-mL flask containing 100 mL medium. These cultures were grown with agitation (120 rpm) for 12-16 hours at 35° C. to a final OD550nm of approximately 2.0-2.5. Cells were harvested by centrifugation at 5000×g for 5 minutes, and resuspended in fresh media to an OD550nm of 0.1. The resulting suspension was distributed into 500-mL beakers containing 345 ml each of fermentation medium. Acetaldehyde was added as indicated. Batch fermentations (35° C., 100 rpm) were maintained at pH 6.5 by the automatic addition of 2N KOH. Cell mass, ethanol, and base addition (2N KOH) were recorded during 96 hours of incubation. […]
(§3) Additives (e.g., as listed in Table 1) were dissolved in 5 mL di-H2O. Solutions with pH lower than 5 were neutralized to pH 6.5 with 2N KOH. Nutritional supplements were then filter-sterilized (0.45 μm filter disk) directly into the fermentation vessel containing the culture. The final concentration of all additives in the culture medium was 2 g/L unless otherwise indicated.
(§4) Cell mass was estimated by measuring OD550nm using Baush & Lomb® Spectronic 70 spectrophotometer. […] Ethanol was measured by gas chromatography using a Varian® 3400 CX gas chromatograph with 1-propanol as an internal standard.
(§5) Tables 1, 3, and 5 show time to completion of fermentation, ethanol production, and volumetric productivity of the fermentation for all concentrations of the compound and the control. Maximum ethanol production is shown in grams/liter (g/L). The ethanol yield is shown in grams of ethanol/grams of added sugar. Maximum volumetric productivity is shown in grams ethanol/(liter)(hour). The average productivity is calculated form the start of fermentation to the completion of fermentation is grams ethanol/(liter)hour).
Tables 2, 4, and 6 show the initial growth of the cells (OD taken after the first 24 hours of fermentation) and the maximum cell density (the time which culture reaches the maximum OD value). […]

Test [2] shares this test system. Description: Batch fermentation of E. coli KO11 in 1% CSL medium and glucose with nutrient additives: ethanol production and cell growth. It counts as cell-based. To be noted: for Ethanol Production Maximum / Ethanol yield / Initial Growth (OD @ 24 h) OD / Maximum Cell Density OD / Volumetric Productivity Average / Volumetric Productivity Maximum: 1% CSL+glucose; for activity at 2000 µg/mL: Escherichia coli. On the procedure: as §1, §2
Inocula were grown in same media used for fermentation and were prepared as follows. Three colonies from a fresh plate were used to inoculate seed cultures: 250-mL flask containing 100 mL medium. These cultures were grown with agitation (120 rpm) for 12-16 hours at 35° C. to a final OD550nm of approximately 2.0-2.5. Cells were harvested by centrifugation at 5000×g for 5 minutes, and resuspended in fresh media to an OD550nm of 0.1. The resulting suspension was distributed into 500-mL beakers containing 345 ml each of fermentation medium. Acetaldehyde was added as indicated. Batch fermentations (35° C., 100 rpm) were maintained at pH 6.5 by the automatic addition of 2N KOH. Cell mass, ethanol, and base addition (2N KOH) were recorded during 96 hours of incubation.
Equivalent amounts of distilled water were added instead of the acetaldehyde in control experiments.
as §3, §4, §5
Tables 2, 4, and 6 show the initial growth of the cells (OD taken after the first 24 hours of fermentation) and the maximum cell density (the time which culture reaches the maximum OD value).
Acetaldehyde was added to the fermentation medium at five different concentrations and time points. […] Where two additions are indicated, the first volume was added at the start of fermentation and the second was added after 8 hours of fermentation.

Setting [3] is: additive 2 g/L unless indicated.
The mark [4] stands for this setting: 24 h, read-out: Initial Growth (OD @ 24 h) % Control, 1% CSL+xylose, additive 2 g/L unless indicated.
Setting [5] is: read-out: Ethanol Production Maximum % Control, 1% CSL+xylose, additive 2 g/L unless indicated.
Where [6] appears, read: read-out: Maximum Cell Density % Control, 1% CSL+xylose, additive 2 g/L unless indicated.
Where [7] appears, read: read-out: Volumetric Productivity Average % Control, 1% CSL+xylose, additive 2 g/L unless indicated.
The mark [8] stands for this setting: read-out: Volumetric Productivity Maximum % Control, 1% CSL+xylose, additive 2 g/L unless indicated.
[9] abbreviates: 24 h, read-out: Initial Growth (OD @ 24 h) % Control, 1% CSL+glucose, additive 2 g/L unless indicated.
[10] abbreviates: read-out: Ethanol Production Maximum % Control, 1% CSL+glucose, additive 2 g/L unless indicated.
Setting [11] is: read-out: Maximum Cell Density % Control, 1% CSL+glucose, additive 2 g/L unless indicated.
Setting [12] is: read-out: Volumetric Productivity Average % Control, 1% CSL+glucose, additive 2 g/L unless indicated.
The mark [13] stands for this setting: read-out: Volumetric Productivity Maximum % Control, 1% CSL+glucose, additive 2 g/L unless indicated.

Take `N[C@@H](CC(=O)O)C(=O)O` [Aspartate, aspartate]: the “Ethanol Production Maximum” value in test [1] (setting [3]) is 27.90 g/L; in test [2] (setting [3]), 41.79 g/L. Besides, the Ethanol yield in test [1] (setting [3]) is reported as 0.287 grams of ethanol/grams of added sugar; in test [2] (setting [3]) it was 0.430 grams of ethanol/grams of added sugar. Also, the “Initial Growth (OD @ 24 h) OD” value in test [1] (setting [3]) amounted to 1.76 OD; in test [2] (setting [3]) it was 2.86 OD. Besides, the “Maximum Cell Density OD” value in test [1] (setting [3]) was 2.45 OD; in test [2] (setting [3]) it was 3.79 OD. In addition, the “Maximum Cell Density Time” value in test [1] (setting [3]) is given as 72 h. Also, the “Volumetric Productivity Average” value is given as 0.291 grams ethanol/(liter)(hour) in test [1] (setting [3]) and 0.580 grams ethanol/(liter)(hour) in test [2] (setting [3]). Also, the figures for the “Volumetric Productivity Maximum” value in test [1] (setting [3]) and in test [2] (setting [3]) were 0.304 grams ethanol/(liter)(hour) and 0.759 grams ethanol/(liter)(hour), respectively. Also, the activity at 2000 µg/mL is 86.3% in test [1] (setting [4]); 92.7% in test [1] (setting [5]); 97.2% in test [1] (setting [6]); 92.7% in test [1] (setting [7]); 82.4% in test [1] (setting [8]); 107% in test [2] (setting [9]). Also, the activity at 2000 µg/mL in test [2] (setting [10]) amounted to 113%; in test [2] (setting [11]) it was 141%; in test [2] (setting [12]) it was 151%; in test [2] (setting [13]), 148%.

Regarding `O=C(O)CC(C(=O)O)C(O)C(=O)O` (centres unmarked) [Isocitrate], in test [1] (setting [3]), the “Ethanol Production Maximum” value is recorded as 33.02 g/L, the Ethanol yield was 0.340 grams of ethanol/grams of added sugar, the “Maximum Cell Density OD” value stood at 3.01 OD and the “Maximum Cell Density Time” value was found to be 96 h. In test [1] (setting [3]), the “Volumetric Productivity Average” value is listed as 0.344 grams ethanol/(liter)(hour) and the “Volumetric Productivity Maximum” value is recorded as 0.435 grams ethanol/(liter)(hour). For the same compound, the activity at 2000 µg/mL in test [1] (read-out: Maximum Cell Density % Control) was 119%. Moreover, in test [1] (read-out: Volumetric Productivity Maximum % Control), the activity at 2000 µg/mL worked out at 118%. Also, in test [2] (setting [3]), the “Ethanol Production Maximum” value was found to be 33.95 g/L, the Ethanol yield is recorded as 0.349 grams of ethanol/grams of added sugar, the “Volumetric Productivity Average” value is on record as 0.471 grams ethanol/(liter)(hour) and the “Volumetric Productivity Maximum” value is given as 0.588 grams ethanol/(liter)(hour). Moreover, the activity at 2000 µg/mL in test [2] (read-out: Ethanol Production Maximum % Control) was 91.8%. For the same compound, in test [2] (read-out: Volumetric Productivity Average % Control), the activity at 2000 µg/mL is 122%.

Turning to `O=C(O)CC(=O)C(=O)O` [Oxaloacetate], the “Ethanol Production Maximum” value is given as 23.61 g/L in test [1] (setting [3]) and 39.72 g/L in test [2] (setting [3]). In addition, the Ethanol yield is recorded as 0.243 grams of ethanol/grams of added sugar in test [1] (setting [3]) and 0.409 grams of ethanol/grams of added sugar in test [2] (setting [3]). Moreover, the “Initial Growth (OD @ 24 h) OD” value in test [1] (setting [3]) turned out to be 1.65 OD; in test [2] (setting [3]), 3.29 OD. Further, the “Maximum Cell Density OD” value in test [1] (setting [3]) is reported as 2.26 OD; in test [2] (setting [3]) it was 3.46 OD. The “Maximum Cell Density Time” value in test [1] (setting [3]) stood at 96 h. Also, the “Volumetric Productivity Average” value in test [1] (setting [3]) is given as 0.246 grams ethanol/(liter)(hour); in test [2] (setting [3]) it was 0.552 grams ethanol/(liter)(hour). Moreover, the entries for the “Volumetric Productivity Maximum” value in test [1] (setting [3]) and in test [2] (setting [3]) were 0.270 grams ethanol/(liter)(hour) and 0.712 grams ethanol/(liter)(hour), respectively. The activity at 2000 µg/mL in test [1] (setting [4]) is 80.8%; in test [1] (setting [5]), 78.5%; in test [1] (setting [6]), 89.9%; in test [1] (setting [7]) it was 78.5%; in test [1] (setting [8]), 73.3%; in test [2] (setting [9]), 123%. The activity at 2000 µg/mL stood at 107% in test [2] (setting [10]), 129% in test [2] (setting [11]), 143% in test [2] (setting [12]) and 138% in test [2] (setting [13]).

In the case of `O=C(O)CC(O)(CC(=O)O)C(=O)O` [Citrate], the “Ethanol Production Maximum” value in test [1] (setting [3]) was determined as 28.80 g/L; in test [2] (setting [3]) it was 32.87 g/L. In addition, the Ethanol yield in test [1] (setting [3]) was 0.296 grams of ethanol/grams of added sugar; in test [2] (setting [3]), 0.338 grams of ethanol/grams of added sugar. The “Initial Growth (OD @ 24 h) OD” value in test [1] (setting [3]) is 2.12 OD; in test [2] (setting [3]) it was 2.43 OD. For the same compound, the entries for the “Maximum Cell Density OD” value in test [1] (setting [3]) and in test [2] (setting [3]) were 2.47 OD and 2.58 OD, respectively. Besides, in test [1] (setting [3]), the “Maximum Cell Density Time” value amounted to 96 h. The “Volumetric Productivity Average” value in test [1] (setting [3]) was 0.300 grams ethanol/(liter)(hour); in test [2] (setting [3]) it was 0.342 grams ethanol/(liter)(hour). The results for the “Volumetric Productivity Maximum” value in test [1] (setting [3]) and in test [2] (setting [3]) were 0.339 grams ethanol/(liter)(hour) and 0.502 grams ethanol/(liter)(hour), respectively. The activity at 2000 µg/mL in test [1] (setting [4]) is 104%; in test [1] (setting [5]) it was 95.7%; in test [1] (setting [6]), 98.1%; in test [1] (setting [7]), 95.7%; in test [1] (setting [8]), 92%; in test [2] (setting [9]), 91%. For the same compound, the activity at 2000 µg/mL worked out at 88.9% in test [2] (setting [10]), 96% in test [2] (setting [11]), 88.9% in test [2] (setting [12]) and 97.8% in test [2] (setting [13]).
